The numbers were not newly measured in publication PMC6287472 (International Journal for Parasitology: Drugs and Drug …, 2018), which cites them from elsewhere.

One data set deals with T1, Sm.5HTRL (Schistosoma mansoni, UniProt A0A173FEI8).
T1 sequence (A0A173FEI8 1-547): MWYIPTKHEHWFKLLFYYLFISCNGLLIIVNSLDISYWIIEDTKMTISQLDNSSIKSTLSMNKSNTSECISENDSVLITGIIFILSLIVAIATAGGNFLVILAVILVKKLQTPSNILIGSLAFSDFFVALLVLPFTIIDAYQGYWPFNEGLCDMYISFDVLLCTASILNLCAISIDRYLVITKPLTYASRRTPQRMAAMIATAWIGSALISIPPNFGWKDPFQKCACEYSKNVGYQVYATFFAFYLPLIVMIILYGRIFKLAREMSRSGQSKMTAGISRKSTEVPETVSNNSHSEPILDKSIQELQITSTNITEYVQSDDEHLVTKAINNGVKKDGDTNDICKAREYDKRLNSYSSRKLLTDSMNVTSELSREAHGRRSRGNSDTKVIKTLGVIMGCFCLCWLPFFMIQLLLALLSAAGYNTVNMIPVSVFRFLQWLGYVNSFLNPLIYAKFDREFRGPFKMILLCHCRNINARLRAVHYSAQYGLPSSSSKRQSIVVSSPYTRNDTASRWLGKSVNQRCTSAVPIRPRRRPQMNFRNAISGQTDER
To be noted: ref Chan et al., 2018; cited from earlier work.

The test system of the next data set is human 5-HT7 receptor. As to conditions: ref Wacker et al., 2013; cited from earlier work.

In the case of `CN1C[C@H](C(=O)N[C@]2(C)O[C@@]3(O)[C@@H]4CCCN4C(=O)[C@H](Cc4ccccc4)N3C2=O)C=C2c3cccc4[nH]cc(c34)C[C@H]21` [ergotamine], the “activity at Sm.5HTRL (in words)” value on Sm.5HTRL was “full agonist”. The “activity at human 5-HT7 receptor (in words)” value in the data set on human 5-HT7 receptor is given as “potent antagonist”.
